Data reported in patent publication US20130115322A1, “Therapeutic Compositions and Methods for Treating Cell Dysplasia Using Extracts From Raspberry and Strawberry” (priority 2003, published 2013).

How the values were obtained:
[1] = system: normal, premalignant and malignant oral epithelial cell lines; assay: Growth and cytotoxicity in oral epithelial cell lines; type: cell-based, human
Description: In particular, using a panel of normal, premalignant and malignant oral epithelial cell lines, the cellular (growth inhibiting and cytotoxic) effects of phytochemicals found in black raspberry fractions was determined (i.e., F001, F003, DM, and ME/Et, see FIGS. 2A and 2B).

[2] = system: VEGF; conditions: reported; cited from earlier work
[3] = target: T1, iNOS (Homo sapiens, UniProt P35228); conditions: cytokine-induced colorectal adenocarcinoma DLD cells; cited from earlier work
T1 construct: its specificity for iNOS was established in cytokine-induced colorectal adenocarcinoma DLD cells; endogenous in cells; host or cells: cytokine-induced colorectal adenocarcinoma DLD cells

[4] = system: azoxymethane-induced aberrant crypt foci; conditions: rat colon, Rao et al.; cited from earlier work
[5] = system: NMBA-induced tumors; conditions: Chen et al. 2004; cited from earlier work
[6] = system: COX-2; assay: COX-2 expression in RE-149 DHD cells; type: cell-based, rat; conditions: RE-149 DHD cell lines
Source text: (§1) Several BRB extracts and anthocyanins have been administered in JB6 CI 41 mouse epidermal cell lines and RE-149 DHD rat epithelium cancer cell lines, and such model systems are predictive of in vivo biological activity. As further discussed below, the BRB methanol fraction inhibits benzo(a)pyrene-7,8-diol-9,10-epoxide (B(a)PDE)-induced transactivation of transcription factor AP-1 and nuclear factor κB (NFκB, NFKB) activity in JB6 CI 41 cell lines; BRB ethanol extracts inhibited cell proliferation in RE-149 DHD cell lines; and the anthocyanins, cyanidin-3-O-glucoside and cyanidin-3-O-rutinoside derived from BRB ethanol extracts, suppressed the expression of COX-2 and iNOS in RE-149 DHD cell lines. A further embodiment is that even the unpurified components of the BRB ethanol extracts are believed to be safe for human consumption, being derived from a consumable foodstuff using consumable extraction solvents.

[7] = system: iNOS; assay: iNOS expression in RE-149 DHD cells; type: cell-based, rat; conditions: RE-149 DHD cell lines
Source text: as §1

T1 sequence (P35228 whole entry): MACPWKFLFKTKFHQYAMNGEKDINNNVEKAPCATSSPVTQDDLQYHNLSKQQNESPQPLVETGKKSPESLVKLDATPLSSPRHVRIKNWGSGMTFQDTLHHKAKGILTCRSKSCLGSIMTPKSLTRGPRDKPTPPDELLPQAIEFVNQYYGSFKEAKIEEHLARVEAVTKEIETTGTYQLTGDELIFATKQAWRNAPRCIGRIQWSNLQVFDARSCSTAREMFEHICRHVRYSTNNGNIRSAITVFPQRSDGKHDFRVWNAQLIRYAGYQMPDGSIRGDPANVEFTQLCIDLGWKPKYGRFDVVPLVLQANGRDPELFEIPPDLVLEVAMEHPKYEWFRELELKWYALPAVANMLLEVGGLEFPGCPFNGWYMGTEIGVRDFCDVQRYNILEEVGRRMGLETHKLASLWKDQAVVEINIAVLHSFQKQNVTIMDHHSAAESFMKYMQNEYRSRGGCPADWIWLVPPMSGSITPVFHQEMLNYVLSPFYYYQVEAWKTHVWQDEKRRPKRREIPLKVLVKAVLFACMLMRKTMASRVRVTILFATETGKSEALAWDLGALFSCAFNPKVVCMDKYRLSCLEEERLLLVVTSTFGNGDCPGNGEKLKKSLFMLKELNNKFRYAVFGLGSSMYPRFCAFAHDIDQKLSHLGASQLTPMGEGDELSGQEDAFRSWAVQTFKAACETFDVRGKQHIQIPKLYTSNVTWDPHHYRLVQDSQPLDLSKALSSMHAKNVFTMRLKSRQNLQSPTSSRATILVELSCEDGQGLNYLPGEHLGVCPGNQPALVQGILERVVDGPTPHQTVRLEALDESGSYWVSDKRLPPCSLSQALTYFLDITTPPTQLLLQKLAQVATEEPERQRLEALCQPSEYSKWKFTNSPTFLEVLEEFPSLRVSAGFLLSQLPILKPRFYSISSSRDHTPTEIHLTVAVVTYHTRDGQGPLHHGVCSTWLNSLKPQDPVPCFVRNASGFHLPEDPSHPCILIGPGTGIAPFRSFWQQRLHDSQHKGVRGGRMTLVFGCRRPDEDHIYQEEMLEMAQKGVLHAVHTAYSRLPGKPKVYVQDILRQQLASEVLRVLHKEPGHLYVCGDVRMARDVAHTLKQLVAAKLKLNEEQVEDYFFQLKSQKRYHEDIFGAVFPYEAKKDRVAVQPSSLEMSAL

Structure (SMILES)	angiogenesis by inhibiting VEGF expression [2]	expression of COX-2 [6]	expression of iNOS [7]	other results
O=c1oc2c(O)c(O)cc3c(=O)oc4c(O)c(O)cc1c4c23 [Ellagic acid]	–	–	–	growth of oral cell lines [1]: potent, non-selective, inhibitor
Cc1nc(C2CCCCC2)c(-c2ccc(S(N)(=O)=O)c(F)c2)o1 [JTE-522]	effectively block angiogenesis	–	–	–
CS(=O)(=O)Nc1ccc([N+](=O)[O-])cc1OC1CCCCC1 [NS-398]	effectively block angiogenesis	–	–	–
N=C(N)SCCc1ccc(CCSC(=N)N)cc1 [PBIT, S,S-1,4-phenylene-bis(1,2-ethanediyl)bis-isothiourea]	–	–	–	selectivity for iNOS over endothelial and neuronal NOS [3]: selectively inhibit iNOS; aberrant crypt foci formation, crypt multiplicity, and iNOS activity [4]: suppressed; NMBA-induced tumors in the rat esophagus [5]: inhibit
OC[C@H]1O[C@@H](Oc2cc3c(O)cc(O)cc3[o+]c2-c2ccc(O)c(O)c2)[C@H](O)[C@@H](O)[C@@H]1O [cyanidin-3-O-glucoside]	–	suppressed	suppressed	–
C[C@@H]1O[C@@H](OC[C@H]2O[C@@H](Oc3cc4c(O)cc(O)cc4[o+]c3-c3ccc(O)c(O)c3)[C@H](O)[C@@H](O)[C@@H]2O)[C@H](O)[C@H](O)[C@H]1O [cyanidin-3-O-rutinoside]	–	suppressed	suppressed	–
